Legend:
Experiment in all cases: relative viability (nuclei count vs DMSO), 5 days (fraction); higher = more cells survive
[1] = compound: CC1=C(C(=NN1)C)CC2=C(C3=C(S2)N(C(=O)N(C3=O)C)CC(C)C)C(=O)N4C[C@@H](CO4)O + Nc1ncn([C@H]2C[C@H](O)[C@@H](CO)O2)c(=O)n1 [Decitabine] (partner 2 µM)
In short: (§1)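 Cells from lung cancer lines were seeded into 1536-well plates and, one day later, dosed by pin tool. Treatments were either a single drug or a fixed dose of an anchor drug with five library-drug doses (not always all listed) in √10 steps. After 5 days, nuclei were stained in a one-step fixation (final 0.05% Triton X-100, 1% formaldehyde, 1 ug/ml Hoechst) and counted on 4× images, and relative viability is the treated-to-vehicle nuclei ratio, as the median of duplicate plates.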

IDH-C35 + OSI-027 = compound: Cc1ccccc1C(C(=O)NC1CCCCC1)N(C(=O)Cn1ccnc1C)c1cccc(F)c1 [IDH-C35] + COc1cccc2cc(-c3nc([C@H]4CC[C@H](C(=O)O)CC4)n4ncnc(N)c34)[nH]c12 [OSI-027] (partner 0.5 µM)
In short: as §1

[2] = compound: CC1=C(C(=NN1)C)CC2=C(C3=C(S2)N(C(=O)N(C3=O)C)CC(C)C)C(=O)N4C[C@@H](CO4)O + C[C@@H](Oc1cc(-c2cnn(C3CCNCC3)c2)cnc1N)c1c(Cl)ccc(F)c1Cl [Crizotinib] (partner 1 µM)
In short: as §1

[3] = compound: CC1=C(C(=NN1)C)CC2=C(C3=C(S2)N(C(=O)N(C3=O)C)CC(C)C)C(=O)N4C[C@@H](CO4)O + COc1cccc2cc(-c3nc([C@H]4CC[C@H](C(=O)O)CC4)n4ncnc(N)c34)[nH]c12 [OSI-027] (partner 0.5 µM)
In short: as §1

Cell Line	relative viability ([1]; first compound 0.0025 µM)	relative viability ([1]; first compound 0.007906 µM)	relative viability ([1]; first compound 0.025 µM)	relative viability ([1]; first compound 0.07906 µM)	relative viability ([1]; first compound 0.25 µM)	relative viability (IDH-C35 + OSI-027; first compound 0.08 µM)	relative viability (IDH-C35 + OSI-027; first compound 0.253 µM)	relative viability (IDH-C35 + OSI-027; first compound 0.8 µM)	relative viability (IDH-C35 + OSI-027; first compound 2.53 µM)	relative viability (IDH-C35 + OSI-027; first compound 8 µM)	relative viability ([2]; first compound 0.0025 µM)	relative viability ([2]; first compound 0.007906 µM)	relative viability ([2]; first compound 0.025 µM)	relative viability ([2]; first compound 0.07906 µM)	relative viability ([2]; first compound 0.25 µM)	relative viability ([3]; first compound 0.0025 µM)	relative viability ([3]; first compound 0.007906 µM)	relative viability ([3]; first compound 0.025 µM)	relative viability ([3]; first compound 0.07906 µM)	relative viability ([3]; first compound 0.25 µM)
NCI-H1975	0.37	0.41	0.393	0.444	0.423	0.64	0.71	0.778	0.741	0.763	0.942	1	1	0.869	1.08	0.751	0.648	0.802	0.804	0.879
CAL-12T						0.642	0.759	0.667	0.704	0.489	0.76	0.724	0.558	0.667	0.817	0.746	0.928	0.538	0.661	0.806
NCI-H1623						0.45	0.421	0.394	0.435	0.423						0.525	0.414	0.447	0.424	0.506
HCC-44	0.978	0.961	0.949	0.912	1.06	0.538	0.641	0.595	0.61	0.625	0.765	0.843	0.88	0.811	0.929	0.676	0.376	0.413	0.516	0.747
EKVX	0.365	0.311	0.309	0.267	0.369	0.752	0.641	0.646	0.657	0.68	1.09	1.11	0.988	0.962	0.992	0.677	0.712	0.666	0.716	0.592
NCI-H1651	0.519	0.699	0.538	0.579	0.567	0.7	0.686	0.746	0.644	0.703	0.807	0.857	0.822	0.804	0.786	0.726	0.734	0.846	0.659	0.662
NCI-H1944	0.452	0.46	0.462	0.404	0.448	0.418	0.415	0.413	0.442	0.392	1.15	1.25	1.15	1.06	1.08	0.434	0.45	0.416	0.427	0.391
NCI-H1703											0.84	0.828	0.898	0.688	0.777					
Calu-6											0.741	0.691	0.808	0.746	1					
EBC-1											0.219	0.182	0.191	0.214	0.184					
SW 1573	0.529	0.519	0.634	0.534	0.504	0.779	0.798	0.648	0.763	0.753	0.955	0.866	0.798	0.786	0.812	0.711	0.846	0.527	0.69	0.64

From the supplement of paper PMC10307832
